For the test, the target named is T1, Secreted chorismate mutase (Mycobacterium tuberculosis (strain ATCC 25618 / H37Rv), UniProt P9WIB9).
T1 sequence (P9WIB9 whole entry): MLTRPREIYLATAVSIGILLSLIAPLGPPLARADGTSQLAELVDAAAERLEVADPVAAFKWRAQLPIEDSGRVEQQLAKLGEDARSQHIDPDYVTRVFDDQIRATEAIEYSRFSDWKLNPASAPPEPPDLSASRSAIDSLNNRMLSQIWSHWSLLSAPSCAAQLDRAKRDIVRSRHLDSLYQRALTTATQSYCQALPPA
Description: CM Assay. Particulars: pH 7.5; 37 °C. As to the method: Reaction volumes of 0.4 mL of chorismate (typically, 1 mM) in 50 mM Tris-HCl (pH 7.5), 0.5 mM EDTA, 0.1 mg/mL bovine serum albumin, and 10 mM β-mercaptoethanol were incubated at 37 °C for 5 min. The reaction was started with 5 pmol of MTB CM in a 10-μl volume (i.e. 185 ng of MTB CM equivalent toa 12.5nM final concentration of the dimer based on the molecular mass of 36 948 Da). The reaction was allowed to proceed at 37 °C and was terminated after 1 min to 5 min with 0.4 ml of 1N HCl. After a further incubation at 37 °C for 10 min to convert prephenate, which is formed in the enzymatic reaction, tophenylpyruvate, 0.8 ml of 2.5N NaOH was added. The absorbance of the phenylpyruvate chromophore was read at 320 nm. We set up a blank with no enzyme for every reaction to account for the non-enzymatic conversion of chorismate to prephenate and added the enzyme after NaOH addition. The A320 for the blank varied from 0.1 to 0.3, depending on the concentration of chorismate and duration of the reaction. Each reaction was carried out in triplicates.

Structures are written as SMILES.

Usually IC50 stands for the midpoint of a concentration-inhibition curve. A higher IC50 goes with lower potency.

Regarding `Cc1ccc(C(C)C)cc1O`, the midpoint of inhibition, the IC50, lay at 1.06 µM. With `C=CCc1ccc(O)c(OC)c1` [2-methoxy-4-(prop-2-en-1-yl)phenol4-allyl-2-methoxyphenol] the figure was 28.6 µM; with `COc1cc(C=O)ccc1O` [4-hydroxy-3-methoxybenzaldehyde], 24.8 µM; with `Cc1ccc(C(C)C)c(O)c1` [5-methyl-2-(propan-2-yl)phenol], 28.4 µM. To `C=C(C)C1CCC(C)CC1O` (stereo not drawn) [(±)Neo isopulegol] belongs 13.6 µM; to `Cc1cc(O)cc(C(C)C)c1` [Carvacrol derivative, 7], 26.8 µM. With `Cc1ccc(C(C)C)cc1` [Carvacrol derivative, 8] the figure was 11.6 µM. For the molecule `Cc1ccccc1O` [Carvacrol derivative, 9], half-maximal inhibition (IC50) required 23.1 µM. With `CC(C)c1cccc(O)c1` [Carvacrol derivative, 10] the figure was 21.4 µM; with `Cc1cc(Cl)c(C(C)C)cc1O` [Carvacrol derivative, 15], 13.7 µM. With `CC1CCC(C(C)C)C(O)C1` (stereo not drawn) [Menthol] the figure was 26.4 µM; with `CC(=O)Oc1cc(C)ccc1C(C)C` [Thymol derivative, 17], 4.08 µM. Take `COc1cc(C)ccc1C(C)C` [Thymol derivative, 21]: it took 21.6 µM to reach half-maximal inhibition (IC50).

These data come from BindingDB's records for doi:10.3109/14756366.2013.823958 (Birla Institute of Technology, 2014).
